In experiment [1] the test system is SB.mhdgc-1. As to the kind of experiment: viability at highest tested concentration (MAXR) relative to DMSO; higher = less cytotoxic. Conditions: SB.mhdgc-1 (hereditary c.1380delA CDH1 gastric cancer). The essentials: (§1)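 Viability values are normalised to DMSO and given either at the highest concentration or as trapezoidal area under the curve. The assay used 500 hereditary or sporadic patient-derived gastric cancer cells in 5 μL medium per 1536 well, dosed by pintool with 23 nL of compound in DMSO at 11 threefold-diluted concentrations. CellTiter-Glo was added 48 h later for 30 min at room temperature, followed by luminescence reading on a ViewLux.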

Experiment [2] deals with SB.msgc-1. The description is as above. Conditions: SB.msgc-1 (sporadic gastric cancer). An outline of the steps: as §1
Experiment [3] deals with SB.mhdgc-1. As to the kind of experiment: area under the dose-response curve of % viability (trapezoidal, 11 doses) (% viability x log10 concentration); higher = less cytotoxic. As to conditions: SB.mhdgc-1 (hereditary c.1380delA CDH1 gastric cancer). An outline of the steps: as §1
Experiment [4] relates to SB.msgc-1. The experiment is described as above. As to conditions: SB.msgc-1 (sporadic gastric cancer). The essentials:
as §1

21 molecules from the supplement of paper PMC5412046 can be followed below.

Where a name gives a salt, the structure may show the parent alone.

As usually defined, the viability is a read-out of living cells in per cent, often relative to untreated cells.

Turning to `O=C(/C=C/c1ccc(/C=C/C(=O)Nc2ccc(C3=NCCN3)cc2)cc1)Nc1ccc(C2=NCCN2)cc1` [GW 4869] (top concentration 46.0829 µM), the viability in experiment [1] was 121%; in experiment [2], 101%. Further, the results for the “area under the dose-response curve” value in experiment [3] and in experiment [4] were 536 and 509, respectively.

With `C[C@@H]1C[C@H]2[C@@H]3\C=C(C)/C4=C/C5=C(C[C@]4(C)[C@H]3[C@@H](O)C[C@]2(C)[C@@]1(O)C(=O)CO)C=N[N]5C6=CC=CC=C6` [Deacetyl cortivazol] (top concentration 46.0829 µM), the viability in experiment [1] came to 20.9%; in experiment [2], 27.5%. Also, the “area under the dose-response curve” value in experiment [3] is 391; in experiment [4], 508.

For `CC1=CC=CC=C1N2\C(=N/C3=C(C(=CC=C3)C)C2=O)C[N]4C=NC5=C4N=CN=C5N` (top concentration 46.0829 µM), the viability in experiment [1] was found to be 27.7%; in experiment [2] it was 70.7%. The figures for the “area under the dose-response curve” value in experiment [3] and in experiment [4] were 360 and 426, respectively.

Consider `CC(C)(C)OC(=O)N[C@H]1CCCCC/C=C\[C@@H]2C[C@@]2(C(=O)N[S+](=O)([O-])C2CC2)NC(=O)[C@@H]2C[C@@H](OC(=O)N3Cc4cccc(F)c4C3)CN2C1=O` [Danoprevir] (top concentration 46.0829 µM), for which the viability in experiment [1] came out at 104%; in experiment [2], 101%. Moreover, the entries for the “area under the dose-response curve” value in experiment [3] and in experiment [4] were 492 and 557, respectively.

`CCCC1OC2C[C@H]3[C@@H]4CCC5=CC(=O)C=C[C@]5(C)[C@H]4C(O)C[C@]3(C)[C@]2(C(=O)CO)O1` (some centres undefined) [Budesonide] (top concentration 46.0829 µM): the viability amounted to 78.6% in experiment [1] and 62.9% in experiment [2]. Further, the figures for the “area under the dose-response curve” value in experiment [3] and in experiment [4] were 512 and 552, respectively.

In the case of `NC1=NC=C(C=C1)C2=CC=C3N=CC\4=C(N(C(=O)\C=C4)C5=CC(=CC=C5)C(F)(F)F)C3=C2` [Torin-2] (top concentration 46.0829 µM), the viability stood at 7.84% in experiment [1] and 21.2% in experiment [2]. Besides, the “area under the dose-response curve” value is 209 in experiment [3] and 315 in experiment [4].

With `C=CCO/N=C(/C[C@H]1O[C@@H]2O[C@]3(C)CC[C@H]4[C@H](C)CC[C@@H]([C@H]1C)[C@@]24OO3)[C@H]1O[C@@H]2O[C@]3(C)CC[C@H]4[C@H](C)CC[C@@H]([C@H]1C)[C@@]24OO3` [BTM-2C-dimer allyl oxime] (top concentration 46.0829 µM), the results for the viability in experiment [1] and in experiment [2] were 11% and 60.3%, respectively. The results for the “area under the dose-response curve” value in experiment [3] and in experiment [4] were 376 and 488, respectively.

For `Cn1c2ccccc2c2c3c(c4c5ccccc5n(CCC#N)c4c21)CNC3=O` [G?-6976] (top concentration 46.0829 µM), the figures for the viability in experiment [1] and in experiment [2] were 7.79% and 17.6%, respectively. In addition, the “area under the dose-response curve” value in experiment [3] amounted to 341; in experiment [4], 405.

`CC(CCc1ccc(O)cc1)NCCc1ccc(O)c(O)c1` (centres undefined) [Dobutamine hydrochloride] (top concentration 46.0829 µM): the viability in experiment [1] amounted to 49.9%; in experiment [2] it was 87.6%. Also, the “area under the dose-response curve” value in experiment [3] was determined as 453; in experiment [4], 538.

Take `CC(C)OC(=O)OCOP(=O)(CO[C@H](C)Cn1cnc2c(N)ncnc21)OCOC(=O)OC(C)C.O=C(O)C=CC(=O)O` [Tenofovir Disoproxil Fumarate] (top concentration 46.0829 µM): the results for the viability in experiment [1] and in experiment [2] were 39% and 36.3%, respectively. Moreover, the entries for the “area under the dose-response curve” value in experiment [3] and in experiment [4] were 531 and 500, respectively.

Regarding `CCC(C1CCC(C)C(O1)C(C)C(O)C(C)C(=O)C(CC)C2OC\3(O[C@]4(CC[C@@](C)(O4)C5CC[C@@](O)(CC)C(C)O5)C(O)\C=C3)C(C)CC2C)C([O-])=O` (some centres undefined) [Salinomycin] (top concentration 46.0829 µM), the viability in experiment [1] turned out to be 8.12%; in experiment [2] it was 23.7%. Further, the “area under the dose-response curve” value in experiment [3] came out at 432; in experiment [4], 334.

Consider `CC(C)NCC(O)COc1ccc(CCOCC2CC2)cc1` (centres undefined) [Betaxolol hydrochloride] (top concentration 46.0829 µM), for which the figures for the viability in experiment [1] and in experiment [2] were 129% and 102%, respectively. Further, the entries for the “area under the dose-response curve” value in experiment [3] and in experiment [4] were 610 and 539, respectively.

Take `Cc1nnc(N[S+](=O)([O-])c2ccc(N)cc2)s1` [Sulfamethizole] (top concentration 46.0829 µM): the viability in experiment [1] came out at 38.9%; in experiment [2], 3.84%. The “area under the dose-response curve” value in experiment [3] is 394; in experiment [4], 489.

For `CCC1(c2ccccc2)C(=O)NCNC1=O` [Primidone] (top concentration 46.0829 µM), the viability was determined as 3.13% in experiment [1] and 6.59% in experiment [2]. For the same molecule, the “area under the dose-response curve” value in experiment [3] stood at 350; in experiment [4] it was 484.

For the molecule `CC(C)[C@H](C(=O)Nc1ccc(C(=O)NO)cc1)c1ccccc1` [AR-42] (top concentration 46.0829 µM), the viability turned out to be 33% in experiment [1] and 5.4% in experiment [2]. The “area under the dose-response curve” value amounted to 391 in experiment [3] and 317 in experiment [4].

Take `C[C@]12CC[C@@H]3c4ccc(O)cc4C[C@@H](CCCCCCCCC[S+]([O-])CCCC(F)(F)C(F)(F)F)[C@H]3[C@@H]1CC[C@@H]2O` (some centres undefined) [Fulvestrant] (top concentration 46.0829 µM): the viability is 90.9% in experiment [1] and 87.6% in experiment [2]. For the same molecule, the “area under the dose-response curve” value in experiment [3] amounted to 531; in experiment [4], 515.

In the case of `CN1[C@@H]2CC(O)C[C@H]1[C@@H]1O[C@@H]12` (some centres undefined) [Scopine] (top concentration 46.0829 µM), the viability is 3.68% in experiment [1] and 1.37% in experiment [2]. Moreover, the “area under the dose-response curve” value in experiment [3] is 557; in experiment [4] it was 494.

Turning to `OC(=O)\C1=C\N(C2=CC=C(F)C=C2)C3=C(C=C(F)C(=C3)N4CCNCC4)C1=O` [Sarafloxacin hydrochloride] (top concentration 46.0829 µM), the viability in experiment [1] was found to be 95.3%; in experiment [2], 102%. The “area under the dose-response curve” value came to 498 in experiment [3] and 616 in experiment [4].

Take `CN(C)CCc1c[nH]c2ccc(C[C@H]3COC(=O)N3)cc12` [Zolmitriptan] (top concentration 46.0829 µM): the viability in experiment [1] came out at 68.4%; in experiment [2] it was 102%. Moreover, the “area under the dose-response curve” value came to 552 in experiment [3] and 569 in experiment [4].

As to `C=CCNC1=C2C[C@@H](C)C[C@H](OC)[C@H](O)[C@@H](C)/C=C(\C)[C@H](OC(N)=O)[C@@H](OC)/C=C\C=C(/C)C(=O)NC(=CC1=O)C2=O` [Tanespimycin] (top concentration 46.0829 µM), the values for the viability in experiment [1] and in experiment [2] were 3.64% and 18.5%, respectively. Further, the “area under the dose-response curve” value in experiment [3] was 363; in experiment [4], 326.

Turning to `Fc1ccc([C@@H]2CCNC[C@H]2COc2ccc3c(c2)OCO3)cc1` [Paroxetine] (top concentration 46.0829 µM), the viability came to 24.9% in experiment [1] and 44.6% in experiment [2]. Moreover, the “area under the dose-response curve” value in experiment [3] was 503; in experiment [4] it was 483.
